In the Kinase Knowledgebase extract (Sharma et al. 2016):

biological target: PIK3CA (human) (UniProt P42336); experiment: Cell-Based Assay; conditions: mda-mb-361
Sequence (P42336 whole entry, looked up): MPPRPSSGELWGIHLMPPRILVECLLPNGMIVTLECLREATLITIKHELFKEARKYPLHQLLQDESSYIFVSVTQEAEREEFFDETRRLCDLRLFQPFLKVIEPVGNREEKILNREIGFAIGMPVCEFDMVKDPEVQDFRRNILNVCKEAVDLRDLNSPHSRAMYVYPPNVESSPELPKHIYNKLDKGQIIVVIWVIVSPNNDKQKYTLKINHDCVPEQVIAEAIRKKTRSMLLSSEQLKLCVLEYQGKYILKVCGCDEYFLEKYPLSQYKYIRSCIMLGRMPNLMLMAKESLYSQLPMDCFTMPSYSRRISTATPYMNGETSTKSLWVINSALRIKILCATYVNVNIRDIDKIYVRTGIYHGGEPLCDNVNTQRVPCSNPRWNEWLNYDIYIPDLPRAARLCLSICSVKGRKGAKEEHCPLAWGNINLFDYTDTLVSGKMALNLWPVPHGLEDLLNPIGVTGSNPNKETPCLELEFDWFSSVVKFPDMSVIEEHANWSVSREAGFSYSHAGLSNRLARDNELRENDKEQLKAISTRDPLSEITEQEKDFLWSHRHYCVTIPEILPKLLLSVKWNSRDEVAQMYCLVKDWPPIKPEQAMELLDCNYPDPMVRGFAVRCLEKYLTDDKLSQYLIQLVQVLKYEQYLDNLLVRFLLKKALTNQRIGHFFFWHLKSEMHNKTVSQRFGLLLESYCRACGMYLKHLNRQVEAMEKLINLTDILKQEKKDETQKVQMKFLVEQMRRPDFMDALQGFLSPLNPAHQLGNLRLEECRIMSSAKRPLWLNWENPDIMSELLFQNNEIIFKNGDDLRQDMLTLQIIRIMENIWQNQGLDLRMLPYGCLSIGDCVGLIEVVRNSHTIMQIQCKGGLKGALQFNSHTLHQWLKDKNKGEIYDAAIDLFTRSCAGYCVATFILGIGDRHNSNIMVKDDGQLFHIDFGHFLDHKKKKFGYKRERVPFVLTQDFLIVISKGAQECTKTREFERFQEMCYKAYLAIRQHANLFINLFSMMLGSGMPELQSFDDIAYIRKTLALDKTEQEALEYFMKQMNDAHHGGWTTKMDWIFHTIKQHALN

Q: `CN1CCN(C2CN(c3cnc4ccc(-c5ccc6oc(N)nc6c5)nc4c3)C2)CC1=O` was tested. Which IC50 did it give?
A: 100 to 1000 nM

Q: `CCOC(=O)N1CCN(c2cnc3ccc(-c4ccc5oc(N)nc5c4)nc3c2)CC1` was tested. Which IC50 did it give?
A: 100 to 1000 nM

Q: Which IC50 does the source give for `C[C@H]1CN(C2CN(c3cnc4ccc(-c5ccc6oc(N)nc6c5)nc4c3)C2)CCN1C` here?
A: 100 to 1000 nM

Q: Which IC50 does the source give for `Nc1nc2cc(-c3ccc4ncc(N5CC(N6CCNCC6)C5)nc4n3)ccc2o1` here?
A: > 10000 nM

Q: Which IC50 does the source give for `CC(C)N1CCN(C2CN(c3cnc4ccc(-c5ccc6oc(N)nc6c5)nc4c3)C2)CC1` here?
A: 100 to 1000 nM

Q: With `Nc1nc2cc(-c3ccc4ncc(N5CCOCC5)nc4n3)ccc2o1` as the compound, how does the IC50 read?
A: 100 to 1000 nM

Q: `Nc1nc2cc(-c3ccc4ncc(N5CC6CCC(C5)O6)cc4n3)ccc2o1` was tested. Which IC50 did it give?
A: 100 to 1000 nM

Q: How did the IC50 turn out when `Nc1nc2cc(-c3ccc4ncc(N5CC(N6CCN(CCO)CC6)C5)cc4n3)ccc2o1` was run?
A: 100 to 1000 nM

Q: How did the IC50 turn out when `NCC(=O)N1CCN(c2cnc3ccc(-c4ccc5oc(N)nc5c4)nc3n2)CC1` was run?
A: > 10000 nM

Q: Which IC50 does the source give for `CC1(C)CN(C2CN(c3cnc4ccc(-c5ccc6oc(N)nc6c5)nc4n3)C2)CCN1` here?
A: 100 to 1000 nM

Q: With `C[C@H]1COCCN1C1CN(c2cnc3ccc(-c4ccc5oc(N)nc5c4)nc3n2)C1` as the compound, how does the IC50 read?
A: > 10000 nM

same assay, conditions: pc3

Q: Which IC50 does the source give for `CN1CCC(N(C)C(=O)c2cnc3ccc(-c4ccc5oc(N)nc5c4)cn23)CC1` here?
A: 100 to 1000 nM

Q: Which IC50 does the source give for `COc1ncc(-c2ccc3ncn(C4CCN(C)CC4)c(=O)c3c2)cc1NS(=O)(=O)c1ccccc1` here?
A: 100 to 1000 nM

Q: With `Cn1c(=O)n(-c2ccc(C(C)(C)C#N)cc2)c2c3cc(-c4ccc5oc(N)nc5c4)ccc3ncc21` as the compound, how does the IC50 read?
A: < 100 nM

Q: Which IC50 does the source give for `CS(=O)(=O)N1CCN(Cc2cc3nc(-c4ccc5oc(N)nc5c4)nc(N4CCOCC4)c3s2)CC1` here?
A: 100 to 1000 nM

same assay, conditions: t47d

Q: How did the IC50 turn out when `CN1CCN(C2CN(C(=O)c3cnc4ccc(-c5ccc6oc(N)nc6c5)cn34)C2)CC1` was run?
A: 100 to 1000 nM

Q: `Nc1nc2cc(-c3ccc4ncc(N5CCN(CC6CC6)CC5)nc4c3)ccc2o1` was tested. Which IC50 did it give?
A: 100 to 1000 nM

Q: With `Nc1nc2cc(-c3ccc4ncc(N5CCOCC5)nc4c3)ccc2s1` as the compound, how does the IC50 read?
A: 100 to 1000 nM

Q: Which IC50 does the source give for `Nc1nc2cc(-c3ccc4ncc(N5CCN(CCO)CC5)nc4c3)ccc2o1` here?
A: 100 to 1000 nM

Q: For `Nc1nc2cc(-c3ccc4ncc(C(=O)N5CC[C@H](O)C5)n4c3)ccc2o1`, which IC50 is on record?
A: 100 to 1000 nM

Q: Which IC50 does the source give for `CCNC(=O)c1cnc2ccc(-c3ccc4oc(N)nc4c3)cn12` here?
A: 100 to 1000 nM

Q: For `Nc1nc2cc(-c3ccc4ncc(C(=O)Nc5cccnc5)n4c3)ccc2o1`, which IC50 is on record?
A: > 10000 nM

Q: Which IC50 does the source give for `Nc1nc2cc(-c3ccc4ncc(N5CCCC5)nc4c3)ccc2o1` here?
A: 100 to 1000 nM

Q: Which IC50 does the source give for `Nc1nc2cc(-c3ccc4ncc(N5CCN(C(=O)CN6CCCC6)CC5)nc4c3)ccc2o1` here?
A: 100 to 1000 nM

Q: With `C[C@H]1CN(C(=O)C2CN(c3cnc4ccc(-c5ccc6oc(N)nc6c5)cc4n3)C2)CCN1` as the compound, how does the IC50 read?
A: 100 to 1000 nM

Q: With `Nc1nc2cc(-c3ccc4ncc(C(=O)N5CC[C@@H](O)C5)n4c3)ccc2o1` as the compound, how does the IC50 read?
A: 100 to 1000 nM

Q: How did the IC50 turn out when `CN1CCN(C(=O)C2CN(c3cnc4ccc(-c5ccc6oc(N)nc6c5)cc4n3)C2)CC1` was run?
A: 100 to 1000 nM

Q: Which IC50 does the source give for `Nc1nc2cc(-c3ccc4ncc(N5CCN(C(=O)C6(N)CCC6)CC5)nc4c3)ccc2o1` here?
A: 100 to 1000 nM

Q: `Nc1nc2cc(-c3ccn4ncc(-c5ccncc5)c4c3)ccc2o1` was tested. Which IC50 did it give?
A: 100 to 1000 nM

Q: How did the IC50 turn out when `Cc1nccn1C1CN(c2cnc3ccc(-c4ccc5oc(N)nc5c4)cc3n2)C1` was run?
A: 100 to 1000 nM

Q: With `CCN(CC)CC(=O)N1CCN(c2cnc3ccc(-c4ccc5oc(N)nc5c4)cc3n2)CC1` as the compound, how does the IC50 read?
A: 100 to 1000 nM

Q: `Nc1nc2cc(-c3ccc4ncc(N5CC(N6CCN(CCO)CC6)C5)nc4c3)ccc2o1` was tested. Which IC50 did it give?
A: 100 to 1000 nM

Q: For `Nc1nc2cc(-c3ccc4ncc(N5CCN(C(=O)[C@@H]6CCCN6)CC5)nc4c3)ccc2o1`, which IC50 is on record?
A: 100 to 1000 nM

Q: With `CC(C)(N)C(=O)N1CCN(c2cnc3ccc(-c4ccc5oc(N)nc5c4)cc3n2)CC1` as the compound, how does the IC50 read?
A: 100 to 1000 nM

Q: With `Nc1nc2cc(-c3ccc4ncc(C(=O)NC5CC5)n4c3)ccc2o1` as the compound, how does the IC50 read?
A: 100 to 1000 nM

Q: For `Nc1nc2cc(-c3ccc4ncc(N5CCC(N6CCOCC6)CC5)nc4c3)ccc2o1`, which IC50 is on record?
A: 100 to 1000 nM

Q: `Nc1nc2cc(-c3ccc4ncc(N5CC(N6CCS(=O)(=O)CC6)C5)nc4c3)ccc2o1` was tested. Which IC50 did it give?
A: 100 to 1000 nM

Q: With `C[C@H](N)C(=O)N1CCN(c2cnc3ccc(-c4ccc5oc(N)nc5c4)cc3n2)CC1` as the compound, how does the IC50 read?
A: 100 to 1000 nM

Q: How did the IC50 turn out when `CNC(=O)CN1CCN(c2cnc3ccc(-c4ccc5oc(N)nc5c4)cc3n2)CC1` was run?
A: 100 to 1000 nM
